# Key:
# [1] = tested on: toxicité de la noradrénaline; experiment: In vivo adrenolytic activity: protection against death caused by i.v. noradrenaline; details: rat, 30 min before noradrenaline 0,4 mg/kg⁻¹ I.V.
# Experimental: La noradrénaline injectée à fortes doses par voie intraveineuse provoque la mort de 100 % des animaux dans les 15 minutes qui suivent son injection. La mort survient par oedème pulmonaire dû à l'hypertension artérielle induite par la stimulation des récepteurs adrénergiques. L'administration préalable de substances α-adrénolytiques par voie orale permet de réduire la toxicité de la noradrénaline. Les produits sont administrés par voie orale à des temps variables entre 30 minutes et 6 heures avant l'injection intraveineuse (I.V.) de noradrénaline (0,4 mg/kg⁻¹).
# [2] = tested on: pressions artérielle et urétrale; experiment: In vivo α-blocking activity at urethral and vascular level: noradrenaline-induced rise of arterial and urethral pressure in the anaesthetised rabbit; design: species or system lapin; details: product i.v.
# Description: L'activité α-bloquante "in vivo" aux niveaux urétral et vasculaire chez le lapin anesthésié a été recherchée par administration intraveineuse des produits B 1007, B 1024, B 1058, B 1125 et B 1134.
# L'injection intraveineuse de noradrénaline provoque chez le lapin une augmentation dose dépendante des pressions artérielle et urétrale. Les substances α-bloquantes injectées par voie intraveineuse antagonisent en fonction des doses ces augmentations de pression. On calcule la dose inhibitrice 50 % (D.I. 50) définie comme étant la dose de produit provoquant une diminution de 50 % des effets de la noradrénaline sur les pressions artérielle et urétrale.
# [3] = tested on: hyperpression urétrale neurogène et pression artérielle; experiment: Urethral specificity in the anaesthetised dog: neurogenic urethral hyperpressure (hypogastric nerve stimulation) and arterial pressure; format: in vivo, chien; details: product i.v.; for Hypotension artérielle DE. 20: dose causing 20 % arterial hypotension; for Hyperpression urétrale neurogène DI. 50: electrical stimulation of the hypogastric nerve
# Description: L'effet des produits B 1007, B 1024, B 1125 et B 1134, injectés par voie intraveineuse sur l'hyperpression urétrale neurogène et sur la pression artérielle, a été recherché chez le chien anesthésié.
# La stimulation électrique du nerf hypogastrique provoque une augmentation de la pression urétrale par libération de noradrénaline à partir des fibres sympathiques du nerf.
# Les substances α-bloquantes antagonisent en fonction des doses ces augmentations de pression urétrale et provoquent une hypotension artérielle par action bloquante au niveau des récepteurs vasculaires.
# On calcule la dose qui inhibe de 50 % (DI. 50) les effets de la stimulation du nerf hypogastrique sur la pression urétrale et la dose qui provoque une hypotension artérielle de 20 % (DE. 20).
# [4] = tested on: urètre isolé du lapin; experiment: In vitro α-adrenolytic activity: antagonism of noradrenaline contractions of isolated rabbit urethra; format: cell-based
# Description: (§1) Elle a été étudiée sur le canal déférent du rat et sur l'urètre du lapin.
# (§2) La noradrénaline provoque des contractions du canal déférent isolé du rat et de l'urètre isolé du lapin. La présence dans le bain de l'organe de substances α-bloquantes antagonise ces contractions : l'utilisation de concentrations croissantes de substances α-bloquantes permet de calculer : • la pA₂ des composés sur le canal déférent du rat; la pA₂ étant le logarithme changé de signe de la concentration molaire du produit en présence de laquelle il faut multiplier par deux la concentration de noradrénaline pour obtenir le même effet qu'en l'absence du produit; • la pD'₂ des composés sur l'urètre du lapin; la pd'₂ étant le logarithme changé de signe de la concentration molaire du produit en présence de laquelle l'activité contracturante de la noradrénaline est divisée par deux.
# [5] = tested on: canal déférent isolé du rat; experiment: In vitro α-adrenolytic activity: antagonism of noradrenaline contractions of isolated rat vas deferens; format: cell-based
# Description: as §1, §2
# [6] = Acute toxicity, lethal dose 50 after oral and intravenous administration; format: in vivo, souris; details: mouse; for DL 50 I.V.: intravenous administration; for DL 50 P.O.: oral administration
# Description: Les doses létales 50 suivantes ont été obtenues après administration orale (P.O.) et intraveineuse (I.V.) des substances chez la souris.
# Les résultats obtenus sont consignés dans le tableau I. TABLEAU I
Structure (SMILES),% de protection contre la mort ([1]; 50 mg/kg⁻¹ p.o.) [%],D.I. 50 vis-à-vis de l'hypertension artérielle [2],D.I. 50 vis-à-vis de l'hypertension urétrale [2],Hypotension artérielle DE. 20 [3],Hyperpression urétrale neurogène DI. 50 [3],Action α-bloquante vis-à-vis de la noradrénaline sur urètre isolé pD'₂ [4],Action α-bloquante vis-à-vis de la noradrénaline sur canal déférent isolé pA₂ [5],DL 50 I.V. [6],DL 50 P.O. [6],% de protection contre la mort ([1]; 25 mg/kg⁻¹ p.o.) [%]
"Cc1ccc(C(C)C)c(OCCN2CCCC2)c1.Cl [B 1007, chlorhydrate du [(pyrrolidinyl-1)-2-éthoxy]-3 p-cymène]",60,"7,63 mg/kg⁻¹","0,34 mg/kg⁻¹",2 mg/kg⁻¹,"0,35 mg/kg⁻¹","6,88","6,74",75 mg/kg⁻¹,330 mg/kg⁻¹,–
"CCCC(=O)Oc1cc(C(C)C)c(OCCN2CCCC2)cc1C.Cl [B 1132, chlorhydrate du butyryloxy-2[(pyrrolidinyl1)-2-éthoxy]-5 p-cymène]",90,–,–,–,–,"6,0","7,35",–,≃ 500 mg/kg⁻¹,–
"CC(=O)Oc1cc(C(C)C)c(OCCN2CCCC2)cc1C.Cl [B 1024, chlorhydratede l'acétoxy-2[(pyrrolidinyl-1)-2-éthoxy]-5 p-cymène]",–,"4,14 mg/kg⁻¹","0,23 mg/kg⁻¹",8 mg/kg⁻¹,"0,07 mg/kg⁻¹","6,38","6,98",18 mg/kg⁻¹,100 mg/kg⁻¹,70
"Cc1cc(OCCN2CCCC2)c(C(C)C)cc1O.Cl [B 1058, chlorhydratede l'hydroxy-2[(pyrrolidinyl-1)-2-éthoxy]-5 p-cymène]",90,"1,22 mg/kg⁻¹","0,13 mg/kg⁻¹",–,–,"6,69","7,18",17 mg/kg⁻¹,80 mg/kg⁻¹,–
"CC(=O)Oc1cc(C(C)C)c(OCCN(C)C)cc1C [Thymoxamine, reference compound]",80,"2,72 mg/kg⁻¹","0,5 mg/kg⁻¹","0,27 mg/kg⁻¹","0,09 mg/kg⁻¹","7,03","7,25","72,5 mg/kg⁻¹",300 mg/kg⁻¹,–
